Here are results for 23 compounds from ChEMBL document CHEMBL5614416, “Discovery of novel thiophene[3,2-d]pyrimidine-based tubulin inhibitors with enhanced antitumor efficacy for combined use with anti-pd-l1 immunotherapy in melanoma” (Eur J Med Chem, 2024).

pIC50: −log10 of the molar value. Activity calls are given as the source filed them. The calls are words filed in the database; no cut-off is given here. Bounds are passed on as bounds.

One series relates to HCT-116. Put plainly: Antiproliferative activity against human HCT-116 cells incubated for 48 hrs by MTT assay. It is filed as functional, cell-based. Particulars: HCT-116, 48 h.
In series [1] the test system is B16-F10. Put plainly: Antiproliferative activity against mouse B16-F10 cells incubated for 48 hrs by MTT assay. It is filed as functional, cell-based. Particulars: B16-F10, 48 h. (In general: Tetrazolium assays rely on reduction of a dye to a coloured formazan, in cell work by metabolically active cells.)
Another series has as its system HeLa. Briefly: Antiproliferative activity against human HeLa cells incubated for 48 hrs by MTT assay. It is filed as functional, cell-based.
Another series relates to MCF7. Briefly: Antiproliferative activity against human MCF7 cells incubated for 48 hrs by MTT assay. It is filed as functional, cell-based. Particulars: MCF7, 48 h.
In another series the test system is NCI-H23. Put plainly: Antiproliferative activity against human NCI-H23 cells incubated for 48 hrs by MTT assay. In kind it is functional, cell-based. Particulars: NCI-H23, 48 h.
A further series deals with HepG2. Put plainly: Antiproliferative activity against human HepG2 cells incubated for 48 hrs by MTT assay. In kind it is functional, cell-based. Particulars: HepG2, 48 h.
In series [2] the test system is B16-F10. Briefly: Antitumor activity against mouse B16-F10 cells xenografted in C57 mouse assessed as suppression of tumor growth at 7 mg/kg, ip qd for 12 days. It is filed as functional, organism-based. Particulars: time 12.0 day.
Series [3] relates to B16-F10. Briefly: Antitumor activity against mouse B16-F10 cells xenografted in C57 mouse at 7 mg/kg, ip qd for 12 days relative to control. It is filed as functional. The note with it: B16-F10, 288 h, time 12 day, read-out: TGI.
A short description of series [4]: Toxicity in C57 mouse xenografted with mouse B16-F10 cells assessed as body weight change at 7 mg/kg, ip qd for 12 days. The note with it: in vivo, 288 h, time 12 day. It is filed as organism-based.

As usually defined, the pIC50 is the negative decadic logarithm of the IC50, by convention in mol/L. A high value points to a small IC50. Consider `COc1ccccc1N(C)c1nc(C)nc2ccsc12`, for which the pIC50 in the series with HCT-116, in the series on B16-F10 [1], in the series on HeLa, in the series with MCF7, in the series on NCI-H23 and in the series on HepG2 was under 7.00 each time.
Take `Cc1c(COc2cc(OCc3cccc(C#N)c3)c(CNC(C)(C)C(=O)O)cc2Cl)cccc1-c1ccccc1`: the result in the series on B16-F10 [2] was Active. In addition, the inhibition in vivo at 7 mg/kg in the series on B16-F10 [3] worked out at 43.9%. Moreover, the Activity result in series [4] was “Non-Toxic”.
On to `Cc1nc(N(C)c2ccc(C(F)(F)F)cc2)c2sccc2n1`, for which the pIC50 in the series on HCT-116, in the series on B16-F10 [1], in the series on HeLa, in the series with MCF7, in the series with NCI-H23 and in the series on HepG2 was under 7.00 throughout.
As for `Cc1nc(N(C)c2ccc(OC(C)C)cc2)c2sccc2n1`, the pIC50 with HCT-116, in the series on B16-F10 [1], in the series on HeLa, with MCF7, in the series on NCI-H23 and with HepG2 was under 7.00 in each case.
As to `Cc1nc(N(C)c2ccc(C(C)C)cc2)c2sccc2n1`, the pIC50 in the series with HCT-116, with B16-F10 [1], with HeLa, in the series on MCF7, with NCI-H23 and with HepG2 was under 7.00 throughout.
In the case of `COc1cc(OC)cc(N(C)c2nc(C)nc3ccsc23)c1`, the pIC50 with HCT-116, in the series on B16-F10 [1], in the series with HeLa, in the series on MCF7, with NCI-H23 and in the series with HepG2 was under 7.00 each time.
With `COc1ccc(N(C)c2nc(C)nc3ccsc23)cc1[N+](=O)[O-]`, the pIC50 in the series with HCT-116 is 8.81; in the series on B16-F10 [1] it was 8.20; in the series on HeLa, 7.70; in the series on MCF7, 8.33; in the series on NCI-H23 it was 7.73; with HepG2 it was 7.73.
As to `Cc1nc(N(C)c2ccc(Cl)c(Cl)c2)c2sccc2n1`, the pIC50 with HCT-116, in the series on B16-F10 [1], in the series on HeLa, with MCF7, in the series on NCI-H23 and in the series on HepG2 was under 7.00 in each case.
Turning to `Cc1nc(N(C)c2cccc(C(F)(F)F)c2)c2sccc2n1`, the pIC50 in the series on HCT-116, in the series with B16-F10 [1], in the series on HeLa, in the series with MCF7, with NCI-H23 and in the series on HepG2 was under 7.00 throughout.
Regarding `COc1cc2c(c(OC)c1OC)-c1ccc(OC)c(=O)cc1[C@@H](NC(C)=O)CC2` [COLCHICINE], the pIC50 in the series on HCT-116 is 8.03; with B16-F10 [1] it was 7.73; with HeLa, 8.03; with NCI-H23, 8.51; in the series with HepG2 it was 8.30.
In the case of `COc1ccc(N(C)c2nc(C)nc3ccsc23)cc1`, the pIC50 was 8.51 in the series with HCT-116; 7.52 with B16-F10 [1]; 7.73 in the series with HeLa; 8.85 in the series on MCF7; 8.03 in the series with NCI-H23; 7.73 in the series on HepG2.
For `COc1ccc(N(C)c2nc(C)nc3ccsc23)cc1C(F)(F)F`, the pIC50 with HCT-116, with B16-F10 [1], in the series on HeLa, in the series on MCF7, in the series on NCI-H23 and with HepG2 was under 7.00 in each case.
For the compound `Cc1nc(N(C)c2cc(Cl)cc(Cl)c2)c2sccc2n1`, the pIC50 in the series on HCT-116, with B16-F10 [1], in the series on HeLa, with MCF7, with NCI-H23 and in the series on HepG2 was under 7.00 in each case.
In the case of `CN(c1ccc2c(ccn2C)c1)c1ncnc2ccsc12`, the pIC50 with HCT-116, in the series on B16-F10 [1], in the series with HeLa, in the series on MCF7, in the series with NCI-H23 and in the series with HepG2 was under 7.00 throughout.
For the compound `COc1cccc(N(C)c2nc(C)nc3ccsc23)c1`, the pIC50 in the series on HCT-116, with B16-F10 [1], with HeLa, in the series with MCF7, with NCI-H23 and with HepG2 was under 7.00 in each case.
On to `Cc1ccc(N(C)c2nc(C)nc3ccsc23)cc1`, for which the pIC50 with HCT-116, in the series with B16-F10 [1], with HeLa, in the series on MCF7, in the series on NCI-H23 and in the series with HepG2 was under 7.00 each time.
As for `COc1cc(N(C)c2nc(C)nc3ccsc23)cc(OC)c1OC`, the pIC50 in the series on HCT-116, with B16-F10 [1], in the series on HeLa, with MCF7, in the series on NCI-H23 and in the series on HepG2 was under 7.00 throughout.
For `Cc1nc(N(C)c2cccc3ccccc23)c2sccc2n1`, the pIC50 with HCT-116, with B16-F10 [1], with HeLa, with MCF7, with NCI-H23 and in the series on HepG2 was under 7.00 each time.
Consider `Cc1nc(N(C)c2cccc(OC(F)(F)F)c2)c2sccc2n1`, for which the pIC50 in the series with HCT-116, in the series with B16-F10 [1], in the series on HeLa, with MCF7, in the series on NCI-H23 and in the series on HepG2 was under 7.00 each time.
As for `Cc1nc(N(C)c2ccccc2C)c2sccc2n1`, the pIC50 in the series with HCT-116, with B16-F10 [1], in the series on HeLa, in the series with MCF7, in the series with NCI-H23 and with HepG2 was under 7.00 each time.
Turning to `Cc1cccc(N(C)c2nc(C)nc3ccsc23)c1`, the pIC50 in the series with HCT-116, in the series with B16-F10 [1], in the series with HeLa, in the series with MCF7, with NCI-H23 and in the series with HepG2 was under 7.00 in each case.
Turning to `Cc1nc(N(C)c2ccc3ccccc3c2)c2sccc2n1`, the pIC50 in the series with HCT-116 was 9.24; in the series on B16-F10 [1], 7.81; with HeLa, 8.05; in the series with MCF7, 7.70; in the series with NCI-H23 it was 7.73; with HepG2 it was 7.74.
As to `COc1ccc(N(C)c2nc(C)nc3ccsc23)cc1OC`, the pIC50 in the series on HCT-116, in the series on B16-F10 [1], in the series on HeLa, in the series on MCF7, with NCI-H23 and in the series with HepG2 was under 7.00 each time.
